From patent US4401604A, “Process for preparing thiosulfenamide derivatives of N-phosphonomethylglycine triesters” (Monsanto Company, priority 1981, dated 1983)

How the values were obtained:
Assay type in all cases: in vivo
[1] = system: Canada Thistle; assay: Post-emergence herbicidal activity, greenhouse; conditions: Table I, 4 WAT
Source text: (§1) A good grade of top soil is placed in aluminum pans having holes in the bottom and compacted to a depth of 0.95 to 1.27 cm. from the top of the pan. A predetermined number of seeds of each of several dicotyledonous and monocotyledonous annual plant species and/or vegetative propagules for the perennial plant species are placed on the soil and pressed into the soil surface. The seeds and/or vegetative propagules are covered with soil and leveled. The pans are then placed on a sand bench in the greenhouse and watered from below as needed. After the plants reach the desired age (two to three weeks), each pan except for the control pans is removed individually to a spraying chamber and sprayed by means of an atomizer operating at a positive air pressure of approximately 1.46 kg/cm^2 absolute. The atomizer contains 6 ml. of a solution or suspension of the chemical. In that 6 ml., is an amount of a cyclohexanone emulsifying agent mixture to give a spray solution or suspension which contains about 0.4% by weight of the emulsifier. The spray solution or suspension contains a sufficient amount of the candidate chemical in order to give application rates corresponding to those set forth in the tables. The spray solution is prepared by taking an aliquot of a 1.0% by weight stock solution or suspension of the candidate chemical in an organic solvent such as acetone or tetrahydrofuran or in water. The emulsifying agent employed is a mixture comprising 35 weight percent butylamine dodecylbenzene sulfonate and 65 weight percent of a tall oil ethylene oxide condensate having about 11 moles of ethylene oxide per mole of tall oil. The pans are returned to the greenhouse and watered as before and the injury to the plants as compared to the control is observed at approximately two and four weeks as indicated in the tables under WAT and the results recorded. In some instances, the two-week observations are omitted.
(§2) The post-emergence herbicidal activity index used in Table I is as follows:
(§3) The plant species utilized in these tests are identified by letter in accordance with the following legend: […]

[2] = system: Downy Brome; assay: Post-emergence herbicidal activity, greenhouse; conditions: Table I, 4 WAT
Source text: as §1, §2, §3

[3] = system: Cocklebur; assay: Post-emergence herbicidal activity, greenhouse; conditions: Table I, 4 WAT
Source text: as §1, §2, §3

[4] = system: Morningglory; assay: Post-emergence herbicidal activity, greenhouse; conditions: Table I, 4 WAT
Source text: as §1, §2, §3

[5] = system: Smartweed; assay: Post-emergence herbicidal activity, greenhouse; conditions: Table I, 4 WAT
Source text: as §1, §2, §3

[6] = system: Lambsquarters; assay: Post-emergence herbicidal activity, greenhouse; conditions: Table I, 4 WAT
Source text: as §1, §2, §3

[7] = system: Quackgrass; assay: Post-emergence herbicidal activity, greenhouse; conditions: Table I, 4 WAT
Source text: as §1, §2, §3

[8] = system: Johnsongrass; assay: Post-emergence herbicidal activity, greenhouse; conditions: Table I, 4 WAT
Source text: as §1, §2, §3

[9] = system: Velvetleaf; assay: Post-emergence herbicidal activity, greenhouse; conditions: Table I, 4 WAT
Source text: as §1, §2, §3

[10] = system: Barnyardgrass; assay: Post-emergence herbicidal activity, greenhouse; conditions: Table I, 4 WAT
Source text: as §1, §2, §3

[11] = system: Yellow Nutsedge; assay: Post-emergence herbicidal activity, greenhouse; conditions: Table I, 4 WAT
Source text: as §1, §2, §3

[12] = system: Canada Thistle; assay: Pre-emergent herbicidal activity; conditions: Table III; 11.2 kg/h; 2 WAT
Source text: (§4) A good grade of top soil is placed in aluminum pans and compacted to a depth of 0.95 to 1.27 cm. from the top of each pan. A predetermined number of seeds or vegetative propagules of each of several plant species are placed on top of the soil in each pan and then pressed down. Herbicidal compositions prepared as in the previous example are applied by admixture with or incorporation in the top layer of soil.
(§5) In this method, the soil required to cover the seeds and propagules is weighed and admixed with a herbicidal composition containing a known amount of the active ingredient (compound of this invention). The pans are then filled with the admixture and leveled. Watering is carried out by permitting the soil in the pans to absorb moisture through apertures in the pan bottoms. The seed and propagule containing pans are placed on a wet sand bench and maintained for approximately two weeks under ordinary conditions of sunlight and watering. At the end of this period, the number of emerged plants of each species is noted and compared to an untreated control.
(§6) The pre-emergent herbicidal activity index used below is based upon average percent control of each species as follows:
(§7) Plant species in the table are identified by the same code letters used in the previous example.

[13] = system: Downy Brome; assay: Pre-emergent herbicidal activity; conditions: Table III; 11.2 kg/h; 2 WAT
Source text: as §4, §5, §6, §7

[14] = system: Cocklebur; assay: Pre-emergent herbicidal activity; conditions: Table III; 11.2 kg/h; 2 WAT
Source text: as §4, §5, §6, §7

[15] = system: Morningglory; assay: Pre-emergent herbicidal activity; conditions: Table III; 11.2 kg/h; 2 WAT
Source text: as §4, §5, §6, §7

[16] = system: Smartweed; assay: Pre-emergent herbicidal activity; conditions: Table III; 11.2 kg/h; 2 WAT
Source text: as §4, §5, §6, §7

[17] = system: Lambsquarters; assay: Pre-emergent herbicidal activity; conditions: Table III; 11.2 kg/h; 2 WAT
Source text: as §4, §5, §6, §7

[18] = system: Quackgrass; assay: Pre-emergent herbicidal activity; conditions: Table III; 11.2 kg/h; 2 WAT
Source text: as §4, §5, §6, §7

[19] = system: Johnsongrass; assay: Pre-emergent herbicidal activity; conditions: Table III; 11.2 kg/h; 2 WAT
Source text: as §4, §5, §6, §7

[20] = system: Velvetleaf; assay: Pre-emergent herbicidal activity; conditions: Table III; 11.2 kg/h; 2 WAT
Source text: as §4, §5, §6, §7

[21] = system: Barnyardgrass; assay: Pre-emergent herbicidal activity; conditions: Table III; 11.2 kg/h; 2 WAT
Source text: as §4, §5, §6, §7

[22] = system: Yellow Nutsedge; assay: Pre-emergent herbicidal activity; conditions: Table III; 11.2 kg/h; 2 WAT
Source text: as §4, §5, §6, §7

## O=C(CN(CP(=O)(Oc1ccccc1)Oc1ccccc1)SSC1CCCCC1)OCc1ccccc1 [III, Glycine, N-(cyclohexyldithio)-N-[(diphenoxyphosphinyl)methyl]-, phenylmethyl ester]
[1]; 5.6 kg/h
  post-emergence herbicidal activity index: 1 (25-49% control)
[1]; 11.2 kg/h
  post-emergence herbicidal activity index: 0 (0- 24% control)
[2]; 5.6 kg/h
  post-emergence herbicidal activity index: 1 (25-49% control)
[2]; 11.2 kg/h
  post-emergence herbicidal activity index: 1 (25-49% control)
[3]; 5.6 kg/h
  post-emergence herbicidal activity index: 1 (25-49% control)
[3]; 11.2 kg/h
  post-emergence herbicidal activity index: 2 (50-74% control)
[4]; 5.6 kg/h
  post-emergence herbicidal activity index: 1 (25-49% control)
[4]; 11.2 kg/h
  post-emergence herbicidal activity index: 2 (50-74% control)
[5]; 5.6 kg/h
  post-emergence herbicidal activity index: 2 (50-74% control)
[5]; 11.2 kg/h
  post-emergence herbicidal activity index: 1 (25-49% control)
[6]; 5.6 kg/h
  post-emergence herbicidal activity index: 2 (50-74% control)
[6]; 11.2 kg/h
  post-emergence herbicidal activity index: 2 (50-74% control)
[7]; 5.6 kg/h
  post-emergence herbicidal activity index: 1 (25-49% control)
[7]; 11.2 kg/h
  post-emergence herbicidal activity index: 2 (50-74% control)
[8]; 5.6 kg/h
  post-emergence herbicidal activity index: 1 (25-49% control)
[8]; 11.2 kg/h
  post-emergence herbicidal activity index: 1 (25-49% control)
[9]; 5.6 kg/h
  post-emergence herbicidal activity index: 0 (0- 24% control)
[9]; 11.2 kg/h
  post-emergence herbicidal activity index: 1 (25-49% control)
[10]; 5.6 kg/h
  post-emergence herbicidal activity index: 2 (50-74% control)
[10]; 11.2 kg/h
  post-emergence herbicidal activity index: 2 (50-74% control)
[11]; 5.6 kg/h
  post-emergence herbicidal activity index: 0 (0- 24% control)
[11]; 11.2 kg/h
  post-emergence herbicidal activity index: 0 (0- 24% control)
[12]
  pre-emergent herbicidal activity index: 1 (25-49% control)
[13]
  pre-emergent herbicidal activity index: 0 (0-24% control)
[14]
  pre-emergent herbicidal activity index: 0 (0-24% control)
[15]
  pre-emergent herbicidal activity index: 0 (0-24% control)
[16]
  pre-emergent herbicidal activity index: 0 (0-24% control)
[17]
  pre-emergent herbicidal activity index: 0 (0-24% control)
[18]
  pre-emergent herbicidal activity index: 0 (0-24% control)
[19]
  pre-emergent herbicidal activity index: 0 (0-24% control)
[20]
  pre-emergent herbicidal activity index: 0 (0-24% control)
[21]
  pre-emergent herbicidal activity index: 0 (0-24% control)
[22]
  pre-emergent herbicidal activity index: 0 (0-24% control)
